US20250034084A1, “COMPOSITIONS AND METHODS FOR PREVENTING OR TREATING MYCOSIS” (AMTIXBIO CO., LTD., priority 2016, published 2025)
Values after ≈ are worked out from the molar mass of the structure shown.

Legend:
Test in all cases: Antifungal activity assay (MIC), NCCLS method
Format in all cases: cell-based
Details in all cases: RPMI 1640 medium
[1] = tested on: Cryptococcus neoformans var. grubii H99 (ATCC)
Description: (§1) In order to measure the minimum inhibitory concentration (MIC), strains Candida albicans SC5314 (ATCC), Candida glabrata BG2 (ATCC), and Cryptococcus neoformans var. grubii […] were used. All the strains used in the test examples of the present invention were purchased from Korean Culture Center of Microorganisms (KCCM) and ATCC, and used. […] As a control group, amphotericin B and fluconazole, which are known to have excellent antifungal inhibitory activity with a problem of human toxicity, were used. Specifically, in order to prepare a medium first, 8.4 g of RPMI-1640 powder (Sigma; […]-1L) was added to 900 ml of distilled water. Next, 34.5 g of MOPS was added thereto, to bring the final concentration to 0.165 M. Then, 100 ml of 20% glucose was added thereto, and then the pH of the resultant was adjusted to 7 using NaOH. Next, after performing filtration with a filter, the filtrate was stored in a refrigeration condition at 4° C. for use in the next experiment. The experimental method and procedure for the MIC assay were as follows: […] (c) in a case of Aspergillus fumigatus, a diluent was prepared at a concentration of 1×10^5 conidia/ml; (d) a 96-well plate was used and 100 μl of the solution was added to each well, so that 2 μl of diluted drug was prepared; (e) 200 μl of the solution was added to a well into which the highest concentration of drug was to be added, and dilution was performed by serial dilution; (f) after performing static culture for 48 hours at 37° C., a degree of growth was measured at OD600 and a comparison was made.

[2] = tested on: Candida albicans SC5314 (ATCC)
Description: as §1

[3] = tested on: Candida glabrata BG2 (ATCC)
Description: as §1

MIC C. neoformans [1]	MIC C. albicans [2]	MIC C. glabrata [3]	MIC C. neoformans ([1]; hydrochloride)	MIC C. glabrata ([3]; hydrochloride)	SMILES
8 µg/mL (≈ 20.4 µM)	32 µg/mL (≈ 81.5 µM)	64 µg/mL (≈ 163 µM)			CN1CCCC1C(=O)NCc1ccc(OCc2ccc(C(F)(F)F)cc2)cc1 (racemic) [Compound 43, (R)/(S)-1-methyl-N-(4-((4-(trifluoromethyl)benzyl)oxy)benzyl)pyrrolidine-2-carboxamide]
4 µg/mL (≈ 10.1 µM)					CCNC(CC)C(=O)NCc1ccc(OCc2ccc(Cl)c(Cl)c2)cc1 (racemic) [Compound 63, (R)/(S)-N-(4-((3,4-dichlorobenzyl)oxy)benzyl-2-(ethylamino)butanamide]
8 µg/mL (≈ 23.4 µM)	128 µg/mL (≈ 374 µM)	128 µg/mL (≈ 374 µM)			CN1CCC(C(=O)NCc2ccc(OCc3cccc(F)c3)cc2)C1 (racemic) [Compound 52, (R)/(s)-1-methyl-N-(4-((3-fluorobenzyl)oxy)benzyl)pyrrolidine-3-carboxamide]
8 µg/mL	64 µg/mL	128 µg/mL			Cl.O=C(NCc1ccc(OCc2ccc(Cl)cc2)cc1)C1CCCN1 (racemic) [Compound 51, (R)/(S)-2-((4-(4-chlorobenzyl)oxy)benzyl) carbamoyl)pyrrolidi-1-nium chloride]
			128 µg/mL		Cl.O=C(NCc1ccc(OCc2cccc(F)c2)cc1)C1CCCN1 (racemic) [Compound 38, (R)/(S)-N-(4-((3-fluorobenzyl)oxy)benzyl)pyrrolidine-2-carboxamide hydrochloride]
2 µg/mL (≈ 5.06 µM)					CCC(C(=O)NCc1ccc(OCc2ccc(Cl)c(Cl)c2)cc1)N(C)C (racemic) [Compound 61, (R)/(S)-N-(4-((3,4-dichlorobenzyl)oxy)benzyl)-2-(dimethylamino)butanamide]
2 µg/mL (≈ 5.07 µM)	8 µg/mL (≈ 20.3 µM)	8 µg/mL (≈ 20.3 µM)			CCCC(NC)C(=O)NCc1ccc(OCc2ccc(C(F)(F)F)cc2)cc1 (racemic) [Compound 30, (R)/(S)-2-(methylamino)-N-(4-(4-trifluoromethyl)benzyl)oxy)benzyl)pentanamide]
8 µg/mL (≈ 22.3 µM)	64 µg/mL (≈ 178 µM)	64 µg/mL (≈ 178 µM)			CN1CCC(C(=O)NCc2ccc(OCc3ccc(Cl)cc3)cc2)C1 (racemic) [Compound 54, (R)/(s)-1-methyl-N-(4-((4-chlorobenzyl)oxy)benzyl)pyrrolidine-3-carboxamide]
4 µg/mL (≈ 9.47 µM)					CCC(C(=O)NCc1ccc(OCc2ccc(C(F)(F)F)cc2)cc1)N(CC)CC (racemic) [Compound 66, (R)/(S)-2-(diethylamino)-N-(4-((4-(trifluoromethyl)benzyl)oxy)benzyl)butanamide]
4 µg/mL (≈ 10.1 µM)	16 µg/mL (≈ 40.6 µM)	16 µg/mL (≈ 40.6 µM)			CCCC(NC)C(=O)NCc1ccc(OCc2ccc(C(F)(F)F)cc2)cc1 (racemic) [Compound 31, (R)/(S)-2-(methylamino)-N-(4-((4-trifluoromethyl)benzyl)oxy)benzyl)pentanamide]
4 µg/mL					CCCC(N)C(=O)NCc1ccc(OCc2ccc(Cl)c(Cl)c2)cc1.Cl (racemic) [Compound 58, (R)/(S)-1-((4-((3,4-dichlorobenzyl)oxy)benzyl)amino)-1-oxopentane-2-aminium chloride]
8 µg/mL (≈ 20.2 µM)					CCC(C(=O)NCc1ccc(OCc2ccc(Cl)c(Cl)c2)cc1)N(C)C (racemic) [Compound 60, (R)/(S)-N-(4-((3,4-dichlorobenzyl)oxy)benzyl)-2-(dimethylamino)butanamide]
8 µg/mL					CCC(N)C(=O)NCc1ccc(OCc2ccc(Cl)c(Cl)c2)cc1.Cl (racemic) [Compound 57, (R)/(S)-1-((4-(3,4-dichlorobenzyl)oxy)benzyl)amino)-1-oxobutane-2-aminium chloride]
64 µg/mL	>128 µg/mL	>128 µg/mL			CCC(N)C(=O)NCc1ccc(OCc2ccccc2F)cc1.Cl (racemic) [Compound 17, (R)/(S)-1-((4-((2-(fluorobenzyl)oxy)benzyl)amino)-1-oxobutane-2-aminum chloride]
128 µg/mL	>128 µg/mL	>128 µg/mL			Cl.O=C(NCc1ccc(OCc2ccc(F)cc2)cc1)C1CCCN1 (racemic) [Compound 39, (R)/(S)-N-(4-((4-fluorobenzyl)oxy)benzyl)pyrrolidine-2-carboxamide hydrochloride]
	64 µg/mL		32 µg/mL	64 µg/mL	Cl.O=C(NCc1ccc(OCc2ccc(Cl)cc2)cc1)C1CCCN1 (racemic) [Compound 41, (R)/(S)-N-(4-((4-chlorobenzyl)oxy)benzyl)pyrrolidine-2-carboxamide hydrochloride]
2 µg/mL (≈ 4.89 µM)					CCCC(NCC)C(=O)NCc1ccc(OCc2ccc(Cl)c(Cl)c2)cc1 (racemic) [Compound 65, (R)/(S)-N-(4-((3,4-dichlorobenzyl)oxy)benzyl-2-(ethylamino)pentanamide]
16 µg/mL	64 µg/mL	64 µg/mL			CCC(N)C(=O)NCc1ccc(OCc2cccc(C(F)(F)F)c2)cc1.Cl (racemic) [Compound 21, (R)/(S)-1-oxo-1-((4-((3-(trifluoromethyl)benzyl)oxy)benzyl)amino)butane-2-aminium chloride]
1 µg/mL (≈ 2.29 µM)					CCCC(C(=O)NCc1ccc(OCc2ccc(Cl)c(Cl)c2)cc1)N(CC)CC (racemic) [Compound 69, (R)/(S)-N-(4-((3,4-dichlorobenzyl)oxy)benzyl-2-(diethylamino)pentanamide]
8 µg/mL (≈ 22.3 µM)	32 µg/mL (≈ 89.2 µM)	64 µg/mL (≈ 178 µM)			CN1CCCC1C(=O)NCc1ccc(OCc2ccc(Cl)cc2)cc1 (racemic) [Compound 44, (R)/(s)-1-methyl-N-(4-((4-chlorobenzyl)oxy)benzyl)pyrrolidine-2-carboxamide]
2 µg/mL (≈ 4.72 µM)					CCC(C(=O)NCc1ccc(OCc2ccc(Cl)c(Cl)c2)cc1)N(CC)CC (racemic) [Compound 67, (R)/(S)-N-(4-((3,4-dichlorobenzyl)oxy)benzyl-2-(diethylamino)butanamide]
8 µg/mL (≈ 20.3 µM)					CCC(C(=O)NCc1ccc(OCc2ccc(C(F)(F)F)cc2)cc1)N(C)C (racemic) [Compound 59, (R)/(S)-2-(dimethylamino)-N-(4-((4-trifluoromethyl)benzyl)oxy)benzyl)butanamide]
8 µg/mL (≈ 20.4 µM)	64 µg/mL (≈ 163 µM)	64 µg/mL (≈ 163 µM)			CN1CCC(C(=O)NCc2ccc(OCc3ccc(C(F)(F)F)cc3)cc2)C1 (racemic) [Compound 53, (R)/(S)-1-methyl-N-(4-((4-(trifluoromethyl)benzyl)oxy)benzyl)pyrrolidine-3-carboxamide]
8 µg/mL (≈ 20.3 µM)					CCNC(CC)C(=O)NCc1ccc(OCc2ccc(C(F)(F)F)cc2)cc1 (racemic) [Compound 62, (R)/(S)-2-(ethylamino)-N-(4-((4-trifluoromethyl)benzyl)oxy)benzyl)butanamide]
2 µg/mL (≈ 4.58 µM)					CCCC(C(=O)NCc1ccc(OCc2ccc(C(F)(F)F)cc2)cc1)N(CC)CC (racemic) [Compound 68, (R)/(S)-2-(diethylamino)-N-(4-((4-(trifluoromethyl)benzyl)oxy)benzyl)pentanamide]
	64 µg/mL		16 µg/mL	32 µg/mL	Cl.O=C(NCc1ccc(OCc2ccc(C(F)(F)F)cc2)cc1)C1CCCN1 (racemic) [Compound 40, (R)/(S)-N-(4-((4-(trifluoromethyl)benzyl)oxy)benzyl)pyrrolidine-2-carboxamide hydrochloride]
4 µg/mL (≈ 10.5 µM)	16 µg/mL (≈ 42.1 µM)	16 µg/mL (≈ 42.1 µM)			CCC(NC)C(=O)NCc1ccc(OCc2ccc(C(F)(F)F)cc2)cc1 (racemic) [Compound 27, (R)/(S)-2-(methylamino)-N-(4-((4-trifluoromethyl)benzyl)oxy)benzyl)butanamide]
4 µg/mL (≈ 9.79 µM)					CCCC(NCC)C(=O)NCc1ccc(OCc2ccc(C(F)(F)F)cc2)cc1 (racemic) [Compound 64, (R)/(S)-2-(ethylamino)-N-(4-((4-(trifluoromethyl)benzyl)oxy)benzyl)pentanamide]

SMILES	MIC C. neoformans [1]	MIC C. albicans [2]	MIC C. glabrata [3]	MIC C. neoformans ([1]; hydrochloride)	MIC C. glabrata ([3]; hydrochloride)
CCCC(N)C(=O)NCc1ccc(OCc2cccc(F)c2)cc1.Cl (racemic) [Compound 25, (R)/(S)-1-((4-((3-fluorobenzyl)oxy)benzyl)amino)-1-oxopentane-2-aminium chloride]	32 µg/mL	128 µg/mL	64 µg/mL		
CCC(N)C(=O)NCc1ccc(OCc2ccccc2C(F)(F)F)cc1.Cl (racemic) [Compound 20, (R)/(S)-1-oxo-1-((4-((2-(trifluoromethyl)benzyl)oxy)benzyl)amino)butane-2-aminium chloride]	16 µg/mL	64 µg/mL	64 µg/mL		
